Test system: U266 cells
Experiment: HLA class I ligand presentation upon carfilzomib treatment on U266 cells (LC-MS/MS)
Type: cell-based, human
Parameters: key to modulation upon carfilzomib-treatment 24 #1 / modulation upon carfilzomib-treatment 24 #2 / modulation upon carfilzomib-treatment 24 #3 / modulation upon carfilzomib-treatment 48 #1 / modulation upon carfilzomib-treatment 48 #2 / modulation upon carfilzomib-treatment 48 #3: −1: significantly down-modulated; 0: not signifcant/not detected; 1: significantly up-modulated
Conditions: U266 cells, vs mock-treated controls; for modulation upon carfilzomib-treatment 24 #1 / modulation upon carfilzomib-treatment 24 #2 / modulation upon carfilzomib-treatment 24 #3: 24 h after carfilzomib treatment (100 nM, 1 h); for modulation upon carfilzomib-treatment 24 #1 / modulation upon carfilzomib-treatment 48 #1: biological replicate #1; for modulation upon carfilzomib-treatment 24 #2 / modulation upon carfilzomib-treatment 48 #2: biological replicate #2; for modulation upon carfilzomib-treatment 24 #3 / modulation upon carfilzomib-treatment 48 #3: biological replicate #3; for modulation upon carfilzomib-treatment 48 #1 / modulation upon carfilzomib-treatment 48 #2 / modulation upon carfilzomib-treatment 48 #3: 48 h after carfilzomib treatment (100 nM, 1 h)
Procedure: HLA class I and II molecules were isolated using standard immunoaffinity purification as described using the pan-HLA class I specific mAb W6/32, the pan-HLA class II specific mAb T039 and the HLA-DR specific mAB L243 (produced in house).
HLA ligand extracts were analyzed in 5 technical replicates as described previously. In brief, peptide samples were separated by nanoflow HPLC (RSLCnano, ThermoFisher) using a 50 μm×25 cm PepMap RSLC column (Thermo Fisher) and a gradient ranging from 2.4 to 32.0% acetonitrile over the course of 90 min. Eluting peptides were analyzed in an online coupled LTQ Orbitrap XL mass spectrometer (Thermo Fisher) using a top 5 CID (collision induced dissociation) fragmentation method.
Data processing was performed as described previously. In brief, the Mascot search engine (Mascot 2.2.04; Matrix Science, London, UK) was implemented to search the human proteome as comprised in the Swiss-Prot database (20,279 reviewed protein sequences, September 2013) without enzymatic restriction. Potential mutated HLA ligands were searched implementing a database containing the human proteome concatenated with proteins containing single amino acid variants (SAVs) listed in the COSMIC database (http://cancer.sanger.ac.uk/cosmic/). Only recurrent SAVs described in 2 or more samples of hematological origin were included. Oxidized methionine was allowed as a dynamic modification. The false discovery rate was estimated using the Percolator algorithm and set to 5%. Peptide lengths were limited to 8-12 amino acids for HLA class I and 12-25 amino acids for HLA class II. Protein inference was disabled, allowing for multiple protein annotations of peptides. HLA annotation was performed using SYFPEITHI [46] or an extended in-house database. Experimental validation of peptide identifications and HLA annotations was performed by mass spectrometric and functional characterization of synthetic peptides for a subset of peptides.
The inventors quantitatively assessed HLA class I ligand presentation during proteasome inhibitor therapy. Observed was a considerable plasticity of the HLA class I ligandome after treatment with carfilzomib with 17.9±1.1% of MM.1S ligands and 11.2±0.7% of U266 ligands (mean of three biological replicates ±s.d.) showing significant modulation (fold-change ≥4, Po0.01 after Benjamini-Hochberg correction) at t24 h compared with mock-treated controls. Briefly, Cultured MCLs (MM.1S and U266) and primary myeloma samples were incubated with carfilzomib (100 nM, Kyprolis®, available, e.g., from Onyx Pharmaceuticals, Inc.) as an example for a proteasome inhibitor for a 1-h period, followed by three washes in PBS (Gibco) and recultured for additional 24 or 48 h. Controls were incubated with vehicle control (glucose 5%) for 1 h, followed by identical washing and incubation for 24 or 48 h. Experiments were conducted in three biological replicates where indicated.

Sequence	modulation upon carfilzomib-treatment 24 #1	modulation upon carfilzomib-treatment 24 #2	modulation upon carfilzomib-treatment 24 #3	modulation upon carfilzomib-treatment 48 #1	modulation upon carfilzomib-treatment 48 #2	modulation upon carfilzomib-treatment 48 #3
FLWDEGFHQL	0	0	0	0	0	0
GPRPITQSEL	0	0	0	0	0	0
KPSTKALVL	0	0	0	0	0	0
KLSSLIILM	0	0	0	0	0	0
ILWETVPSM	0	0	0	0	0	0
AEQEIARLVL	0	0	0	0	0	0
YLYITKVLK	0	0	0	0	0	0
KAVNPGRSL	0	0	0	0	0	0
GETAFAFHL	0	0	0	0	0	0
SPYLRPLTL	0	0	0	0	0	0
KPKDPLKISL	−1	−1	−1	0	−1	−1
ALWGRTTLK	0	0	0	0	0	0
KILKPVKKK	0	0	0	0	0	0
LPPPPHVPL	0	0	0	0	0	0
ILRDGITAGK	0	0	0	0	0	0
SPRQALTDF	0	0	0	0	0	0
APFQGDQRSL	0	1	1	0	1	0
LLFPYILPPK	0	0	0	0	0	0
KLPLPLPPRL	0	0	0	0	0	0
RPRPPVLSV	0	0	0	0	0	0
IESHPDNAL	0	0	0	0	0	0
SPRLSLLYL	0	0	0	0	0	0
PELGPLPAL	0	0	0	0	0	0
GEVQDLLVRL	0	0	0	0	0	0
KEGLILPETL	1	1	0	0	0	0
RQFWTRTKK	0	0	0	0	0	0
SRGDFVVEY	0	−1	0	0	0	−1
RVNKVIIGTK	0	0	0	0	0	0
RPGPPTRPL	0	0	0	0	0	0
